The numbers were not newly measured in patent US20110145936A1, “Genetically Modified Rat Models for Pharmacokinetics” (priority 2009, published 2011), which cites them from elsewhere.

Data set [1] concerns the target T1, Slc7a11 (Homo sapiens, UniProt Q9UPY5).
T1 sequence (Q9UPY5 1-501): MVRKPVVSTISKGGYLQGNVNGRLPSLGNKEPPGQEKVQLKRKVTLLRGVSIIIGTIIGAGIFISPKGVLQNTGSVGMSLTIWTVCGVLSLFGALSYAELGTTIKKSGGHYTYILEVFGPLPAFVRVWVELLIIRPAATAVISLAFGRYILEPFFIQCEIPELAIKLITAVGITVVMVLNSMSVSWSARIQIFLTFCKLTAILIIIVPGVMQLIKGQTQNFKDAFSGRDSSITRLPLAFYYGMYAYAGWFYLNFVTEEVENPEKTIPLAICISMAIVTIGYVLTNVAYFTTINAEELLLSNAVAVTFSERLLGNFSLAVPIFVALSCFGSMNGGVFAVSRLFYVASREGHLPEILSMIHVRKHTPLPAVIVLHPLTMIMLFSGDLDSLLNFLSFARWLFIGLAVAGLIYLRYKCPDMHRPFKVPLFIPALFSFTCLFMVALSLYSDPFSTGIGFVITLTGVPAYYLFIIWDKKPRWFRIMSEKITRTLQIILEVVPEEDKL
T1 sequence (P08195 1-529 partner): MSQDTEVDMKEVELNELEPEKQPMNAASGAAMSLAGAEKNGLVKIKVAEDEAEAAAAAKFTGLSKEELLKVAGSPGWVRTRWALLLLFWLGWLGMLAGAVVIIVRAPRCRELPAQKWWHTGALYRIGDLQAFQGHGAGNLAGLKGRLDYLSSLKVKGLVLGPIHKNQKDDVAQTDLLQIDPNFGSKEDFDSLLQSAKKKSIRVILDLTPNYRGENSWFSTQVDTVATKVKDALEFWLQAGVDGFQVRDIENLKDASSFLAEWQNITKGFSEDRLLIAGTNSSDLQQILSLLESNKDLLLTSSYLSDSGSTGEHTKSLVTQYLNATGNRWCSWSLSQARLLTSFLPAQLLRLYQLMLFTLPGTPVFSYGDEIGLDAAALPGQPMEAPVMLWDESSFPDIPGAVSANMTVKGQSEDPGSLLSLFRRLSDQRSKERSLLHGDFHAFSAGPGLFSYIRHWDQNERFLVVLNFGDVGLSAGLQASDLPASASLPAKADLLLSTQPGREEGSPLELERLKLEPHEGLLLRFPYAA
Conditions: WT Slc7a11 cells; more sensitive to the GA analog.

The subject of data set [2] is Abcg2 & Abcb1. To be noted: gene Abcg2 & Abcb1.
The target of data set [3] is Abcc1 (Mus musculus, UniProt O35379). Conditions: for white blood cell, bone marrow nucleated cell and spleen myeloid activity: Abcc1 KO mice after etoposide.
Sequence of Abcc1 (O35379 whole entry): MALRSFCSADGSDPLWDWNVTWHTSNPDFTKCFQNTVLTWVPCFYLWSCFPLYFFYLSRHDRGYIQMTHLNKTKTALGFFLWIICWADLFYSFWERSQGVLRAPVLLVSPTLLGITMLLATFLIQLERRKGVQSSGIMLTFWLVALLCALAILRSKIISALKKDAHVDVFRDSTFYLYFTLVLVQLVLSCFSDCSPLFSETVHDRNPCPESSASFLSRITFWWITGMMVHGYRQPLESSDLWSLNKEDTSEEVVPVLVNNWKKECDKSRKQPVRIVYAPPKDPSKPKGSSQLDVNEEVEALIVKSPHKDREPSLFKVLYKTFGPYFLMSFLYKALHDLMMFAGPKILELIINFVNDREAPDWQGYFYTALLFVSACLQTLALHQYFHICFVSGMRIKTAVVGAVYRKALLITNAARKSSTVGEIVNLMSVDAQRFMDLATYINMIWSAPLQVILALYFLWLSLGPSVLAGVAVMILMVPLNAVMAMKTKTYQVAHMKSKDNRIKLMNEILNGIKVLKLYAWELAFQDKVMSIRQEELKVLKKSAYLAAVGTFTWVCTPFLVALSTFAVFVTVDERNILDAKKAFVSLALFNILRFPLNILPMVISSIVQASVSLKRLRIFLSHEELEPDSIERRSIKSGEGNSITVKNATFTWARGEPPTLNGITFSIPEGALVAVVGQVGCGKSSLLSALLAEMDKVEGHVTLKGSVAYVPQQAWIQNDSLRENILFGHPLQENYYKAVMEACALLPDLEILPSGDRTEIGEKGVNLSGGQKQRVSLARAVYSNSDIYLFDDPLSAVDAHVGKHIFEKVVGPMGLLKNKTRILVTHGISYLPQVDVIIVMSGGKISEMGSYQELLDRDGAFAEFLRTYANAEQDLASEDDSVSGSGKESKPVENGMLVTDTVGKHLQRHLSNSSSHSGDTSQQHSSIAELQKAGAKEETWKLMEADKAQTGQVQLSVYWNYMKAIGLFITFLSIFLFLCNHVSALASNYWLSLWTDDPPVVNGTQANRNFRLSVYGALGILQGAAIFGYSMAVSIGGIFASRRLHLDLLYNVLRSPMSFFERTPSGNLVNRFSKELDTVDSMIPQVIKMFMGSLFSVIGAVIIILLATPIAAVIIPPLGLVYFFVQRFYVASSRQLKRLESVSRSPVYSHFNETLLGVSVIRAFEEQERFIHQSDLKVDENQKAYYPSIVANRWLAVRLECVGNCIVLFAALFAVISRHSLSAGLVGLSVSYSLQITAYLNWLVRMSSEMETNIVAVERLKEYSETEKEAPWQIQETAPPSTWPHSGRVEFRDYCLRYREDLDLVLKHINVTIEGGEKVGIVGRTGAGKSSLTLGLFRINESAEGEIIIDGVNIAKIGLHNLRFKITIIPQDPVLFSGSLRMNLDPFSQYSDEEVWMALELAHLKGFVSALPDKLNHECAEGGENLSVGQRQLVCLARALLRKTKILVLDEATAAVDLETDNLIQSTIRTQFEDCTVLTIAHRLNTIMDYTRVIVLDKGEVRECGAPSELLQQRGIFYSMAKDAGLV
Data set [4] concerns the target Slc22a8 (Mus musculus, UniProt Q9WTW5). Conditions: gene Slc22a8.
In data set [5] the target is T2, Abcg2 (Mus musculus, UniProt Q7TMS5).
T2 construct: host or cells: whole animal: WT mice versus Abcg2-/- mice
T2 sequence (Q7TMS5 1-657): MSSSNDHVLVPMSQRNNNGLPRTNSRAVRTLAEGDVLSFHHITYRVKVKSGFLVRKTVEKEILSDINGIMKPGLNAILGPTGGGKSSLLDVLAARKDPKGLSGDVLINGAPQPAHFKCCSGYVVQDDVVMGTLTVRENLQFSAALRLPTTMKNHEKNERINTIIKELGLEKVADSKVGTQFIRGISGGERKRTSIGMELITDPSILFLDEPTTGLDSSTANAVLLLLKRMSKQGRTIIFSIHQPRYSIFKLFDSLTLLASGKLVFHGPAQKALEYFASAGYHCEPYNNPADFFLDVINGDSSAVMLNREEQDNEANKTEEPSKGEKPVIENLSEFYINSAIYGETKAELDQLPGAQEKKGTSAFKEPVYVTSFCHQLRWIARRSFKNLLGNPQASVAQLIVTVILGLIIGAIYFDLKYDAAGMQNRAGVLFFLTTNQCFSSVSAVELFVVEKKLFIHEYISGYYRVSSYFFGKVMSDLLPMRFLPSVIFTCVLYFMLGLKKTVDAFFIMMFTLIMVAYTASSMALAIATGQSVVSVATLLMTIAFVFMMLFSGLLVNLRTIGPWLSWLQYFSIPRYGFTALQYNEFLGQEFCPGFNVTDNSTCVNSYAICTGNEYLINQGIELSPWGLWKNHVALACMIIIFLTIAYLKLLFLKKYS
Conditions: Abcg2-/- mice vs WT.

In data set [6] the target is Abcb11 (Mus musculus, UniProt Q9QY30).
Sequence of Abcb11 (Q9QY30 whole entry): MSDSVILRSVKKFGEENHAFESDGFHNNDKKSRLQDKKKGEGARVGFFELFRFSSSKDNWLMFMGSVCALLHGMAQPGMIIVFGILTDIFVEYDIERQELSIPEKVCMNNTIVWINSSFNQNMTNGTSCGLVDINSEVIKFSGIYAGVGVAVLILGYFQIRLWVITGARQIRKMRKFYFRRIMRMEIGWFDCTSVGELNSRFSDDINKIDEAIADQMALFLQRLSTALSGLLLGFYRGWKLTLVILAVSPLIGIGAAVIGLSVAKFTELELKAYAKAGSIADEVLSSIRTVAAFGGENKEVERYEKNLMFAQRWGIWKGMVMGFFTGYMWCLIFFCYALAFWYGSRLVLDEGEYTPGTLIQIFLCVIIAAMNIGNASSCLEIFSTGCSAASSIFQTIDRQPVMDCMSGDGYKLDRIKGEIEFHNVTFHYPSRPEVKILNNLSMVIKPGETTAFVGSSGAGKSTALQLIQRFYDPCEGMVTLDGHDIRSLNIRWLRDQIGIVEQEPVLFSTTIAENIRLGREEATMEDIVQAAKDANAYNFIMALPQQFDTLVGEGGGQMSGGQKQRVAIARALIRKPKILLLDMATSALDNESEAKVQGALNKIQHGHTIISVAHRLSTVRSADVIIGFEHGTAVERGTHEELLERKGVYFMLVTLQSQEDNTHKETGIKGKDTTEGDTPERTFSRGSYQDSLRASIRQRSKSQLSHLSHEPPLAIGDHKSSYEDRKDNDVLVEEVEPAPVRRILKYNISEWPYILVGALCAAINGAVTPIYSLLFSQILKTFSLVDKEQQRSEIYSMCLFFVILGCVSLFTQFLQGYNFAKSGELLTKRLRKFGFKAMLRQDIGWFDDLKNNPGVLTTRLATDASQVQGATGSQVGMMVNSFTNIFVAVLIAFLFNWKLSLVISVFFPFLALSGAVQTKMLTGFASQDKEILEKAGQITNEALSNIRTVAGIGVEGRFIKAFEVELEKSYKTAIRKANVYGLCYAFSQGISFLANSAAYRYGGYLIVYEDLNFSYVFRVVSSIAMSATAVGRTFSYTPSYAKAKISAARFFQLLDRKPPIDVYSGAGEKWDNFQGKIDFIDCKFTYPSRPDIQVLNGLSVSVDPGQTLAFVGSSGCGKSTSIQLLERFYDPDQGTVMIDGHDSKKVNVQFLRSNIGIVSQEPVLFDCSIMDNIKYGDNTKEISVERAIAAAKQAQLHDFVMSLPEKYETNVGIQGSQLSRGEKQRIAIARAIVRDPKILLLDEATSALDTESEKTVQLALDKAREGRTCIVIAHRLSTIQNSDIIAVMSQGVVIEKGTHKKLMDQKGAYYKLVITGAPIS
In data set [7] the test system is leukemia cell lines which express high levels of Slc29a1. To be noted: graded levels of azacytidine in the presence of a tight binding Slc29a1 inhibitor.
Data set [8] concerns Abcb1. To be noted: for direct liver mediated excretion: Abcb1-/- vs WT mice, cannulation of the gall bladder.

Sequence of Slc22a8 (Q9WTW5 whole entry): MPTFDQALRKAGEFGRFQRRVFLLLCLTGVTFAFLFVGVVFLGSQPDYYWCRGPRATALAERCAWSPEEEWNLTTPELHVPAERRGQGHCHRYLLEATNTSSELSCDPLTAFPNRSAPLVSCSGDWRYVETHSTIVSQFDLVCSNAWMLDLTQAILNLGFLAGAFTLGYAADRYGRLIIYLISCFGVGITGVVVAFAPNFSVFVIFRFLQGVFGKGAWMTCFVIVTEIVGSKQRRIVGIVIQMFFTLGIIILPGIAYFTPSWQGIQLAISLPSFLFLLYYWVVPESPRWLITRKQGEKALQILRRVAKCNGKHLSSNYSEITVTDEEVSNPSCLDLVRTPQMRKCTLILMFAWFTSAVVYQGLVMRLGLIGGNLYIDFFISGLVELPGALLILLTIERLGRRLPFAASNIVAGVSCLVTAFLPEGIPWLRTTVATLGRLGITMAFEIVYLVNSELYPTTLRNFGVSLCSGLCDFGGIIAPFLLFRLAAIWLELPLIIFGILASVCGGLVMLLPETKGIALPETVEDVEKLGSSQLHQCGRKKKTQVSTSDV

Take `C=CCNC1=C2C[C@@H](C)C[C@H](OC)[C@H](O)[C@@H](C)/C=C(\C)[C@H](OC(N)=O)[C@@H](OC)/C=C\C=C(/C)C(=O)NC(=CC1=O)C2=O` [17AAG, 17-(allyl-amino)-17 denethoxygelandomycin]: in data set [1], the “sensitivity relative to GA” value is 7.2 fold.

Regarding `C(=N\NC1=NCCN1)/c1c2ccccc2c(/C=N/NC2=NCCN2)c2ccccc12` [Bisantrene], the Drug resistance/sensitivity result in data set [2] is reported as “Taxol analog (S),”.

Take `COc1cc([C@@H]2c3cc4c(cc3[C@@H](O[C@@H]3O[C@@H]5CO[C@@H](C)O[C@H]5[C@H](O)[C@H]3O)[C@H]3COC(=O)[C@H]23)OCO4)cc(OC)c1OP(=O)(O)O` [Etoposide phosphate]: in data set [3] (Abcc1-/- vs WT mice, single dose), the “toxicity in transporter deficient mice compared to WT” value is given as “twice as toxic”. Moreover, the “white blood cell, bone marrow nucleated cell and spleen myeloid activity” value in data set [3] is reported as “severe depletion”.

`COc1cc([C@@H]2c3cc4c(cc3[C@@H](O[C@@H]3O[C@@H]5CO[C@@H](C)O[C@H]5[C@H](O)[C@H]3O)[C@H]3COC(=O)[C@H]23)OCO4)cc(OC)c1O` [Etoposide]: the “white blood cell, bone marrow nucleated cell and spleen myeloid activity” value in data set [3] is “depleted in Abcc1 mice”. Further, the Drug resistance/sensitivity result in data set [3] (gene Abcc1) was “Etoposide (S)”.

On to `NCCc1c[nH]cn1` [Histamine], for which the Drug resistance/sensitivity entry in data set [4] was “Histamine (S),”.

Take `Cn1c(N)nc2ncc(-c3ccccc3)cc21` [PhIP]: in data set [5], the concentration result was “higher concentration” and the intestinal excretion result was “highly impaired”.

Take `C[C@H](CCC(=O)NCCS(=O)(=O)O)[C@H]1CC[C@H]2[C@@H]3[C@H](O)C[C@@H]4C[C@H](O)CC[C@]4(C)[C@H]3C[C@H](O)[C@]12C` [Taurocholate]: the “bile acid output increase” value in data set [6] (WT mice after Taurocholate injection) is “output; WT mice show a 20-fold”. Besides, in data set [6] (WT mice after tail vein injection), the taurocholate output increase is reported as 20 fold.

On to `Nc1ncn([C@@H]2O[C@H](CO)[C@@H](O)[C@H]2O)c(=O)n1` [azacytidine], for which, in data set [7], the loss in cytotoxicity is on record as more than 10 fold.

For `C[C@H]1O[C@@H](O[C@H]2[C@@H](O)C[C@H](O[C@H]3[C@@H](O)C[C@H](O[C@H]4CC[C@@]5(C)[C@H](CC[C@@H]6[C@@H]5C[C@@H](O)[C@]5(C)[C@@H](C7=CC(=O)OC7)CC[C@]65O)C4)O[C@@H]3C)O[C@@H]2C)C[C@H](O)[C@@H]1O` [digoxin], the “direct liver mediated excretion” value in data set [8] is reported as “moderate decrease”.

In the case of `CC(=O)O[C@H]1C(=O)[C@@]2(C)[C@H]([C@H](OC(=O)c3ccccc3)[C@]3(O)C[C@H](OC(=O)[C@H](O)[C@@H](NC(=O)c4ccccc4)c4ccccc4)C(C)=C1C3(C)C)[C@]1(OC(C)=O)CO[C@@H]1C[C@@H]2O` [paclitaxel], in data set [8], the “direct liver mediated excretion” value is reported as “moderate decrease”. In data set [8] (brain, ovaries, adrenal gland and intestine of Abcb1-/- mice), the organ penetration entry is “increased penetration”.
